Measured values: patent US20220378706A1, “PHARMACEUTICAL COMPOSITION COMPRISING PDE9 INHIBITOR” (Eisai R&D Management Co., Ltd., priority 2017, published 2022)
Where two headings read alike, the source gives them in different places.

How the values were obtained:
PDE9 = PDE9 (Homo sapiens, UniProt O76083); details: WO2013/051369, WO2014/163147; cited from earlier work
[1] = Single dose clinical study Part B: CSF Compound A pharmacokinetics; assay type: in vivo; details: human
Procedure: After the Screening Period, subjects returned to the clinic on […] for Baseline procedures. […] Serial CSF sampling via the lumbar catheter commenced on Day 1, after an overnight fast. CSF samples were collected on Day 1 over a period of 3 hours predose. Subjects were then administered study drug, and serial CSF sampling for 30 hours postdose was performed to determine CSF cGMP and CSF Compound A concentrations. Blood samples for plasma Compound A PK were collected at the same time points as CSF sampling. Safety evaluations were also performed.
Concentrations of Compound A in CSF were analyzed in serial CSF samples collected at predose and postdose at 1, 2, 3, 4, 5, 6, 8, 10, 12, 14, 16, 18, 24, and 30 hours.
Plasma, urine and CSF concentrations of Compound A were measured using validated liquid chromatography mass spectrometry/mass spectrometry (LC MS/MS) assay methods. CSF concentrations of cGMP were measured using a validated LC-MS/MS assay method.
The following PK parameters were derived by noncompartmental analysis using CSF Compound A concentrations: […]

[2] = tested on: cGMP in the cerebrospinal fluid; assay: CSF cGMP elevation in rats; assay type: in vivo; details: rat, scopolamine
Procedure: cGMP in the cerebrospinal fluid (hereinafter referred to as “CSF cGMP”) elevation in each sample was measured according to the method described in WO2013/051639.

[3] = tested on: scopolamine-induced memory impairment in rats; assay: Scopolamine-induced memory impairment in rat novel object recognition test; assay type: in vivo; details: scopolamine 0.7 mg/kg i.p., mean ± SEM
Description: (Effects of Compound a Monomaleate Salt on Scopolamine-Induced Memory Impairment in Rat Novel Object Recognition Test)
The effects of orally administered Compound A monomaleate salt on scopolamine-induced memory impairment in a novel object recognition test in rats was examined.
Six-week-old male Long-Evans rats (Institute for Animal Reproduction) were used in this study. Before test day, rats were placed in each experimental apparatus once a day, on two consecutive days to habituate rats to the test chamber. […]
Following a 2-hour […] interval, a retention trial (T2) was conducted. […] Animal performance in T1 and T2 was recorded with a digital video camera, and the amount of time spent exploring each object was measured by manual stopwatches. […]
In novel object recognition test, the following novel object exploration ratio in T2 is considered as amnesic indexes reflecting the discrimination between the familiar and novel objects. These indexes are calculated according to the following formulas: […]
Data are expressed as the mean±SEM. The difference between the non-scopolamine treated control and scopolamine treated control groups were analyzed using unpaired t test. The effects of Compound A monomaleate salt on novel object exploration ratio in T2 was analyzed by one-way analysis of variance (ANOVA) followed by the Dunnett multiple comparison test. […]

[4] = High precision QTcF analysis using Holter ECG recording; assay type: in vivo, human; details: at the Cmax at the highest doses of 800 to 1200 mg, healthy subjects
Procedure: In addition, high precision QTcF analysis using Holter ECG recording was conducted in Parts A, C, and D during Day −1 and Day 1, to allow more rigorous assessments of possible changes in QTcF intervals. A central ECG laboratory was used to extract ECG recordings from the Holter device.

PDE9, sequence (O76083 whole entry): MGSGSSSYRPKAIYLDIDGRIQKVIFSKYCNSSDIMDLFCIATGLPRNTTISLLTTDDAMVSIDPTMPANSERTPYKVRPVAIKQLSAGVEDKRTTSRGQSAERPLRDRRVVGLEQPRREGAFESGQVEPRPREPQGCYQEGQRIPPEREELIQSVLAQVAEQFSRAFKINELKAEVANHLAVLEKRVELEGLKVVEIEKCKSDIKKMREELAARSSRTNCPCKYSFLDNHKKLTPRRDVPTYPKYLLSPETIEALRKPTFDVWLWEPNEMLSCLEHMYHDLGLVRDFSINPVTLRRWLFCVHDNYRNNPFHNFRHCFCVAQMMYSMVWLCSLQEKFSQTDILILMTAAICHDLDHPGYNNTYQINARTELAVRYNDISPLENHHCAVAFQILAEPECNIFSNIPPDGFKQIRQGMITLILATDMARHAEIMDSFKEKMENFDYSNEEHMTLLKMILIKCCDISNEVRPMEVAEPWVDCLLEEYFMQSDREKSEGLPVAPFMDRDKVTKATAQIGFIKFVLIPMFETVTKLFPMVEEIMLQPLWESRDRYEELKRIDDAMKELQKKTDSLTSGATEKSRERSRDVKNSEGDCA

SMILES: COc1ncc(C)c(-c2ccc3c(c2)[nH]c(=O)c2cnn([C@H]4CCOC4)c23)c1C [Compound A, (S)-7-(2-methoxy-3,5-dimethylpyridin-4-yl)-1-(tetrahydrofuran-3-yl)-1H-pyrazolo[4,3-c]quin olin-4(5H)-one]
- PDE9 inhibitory activity (PDE9): known to have a PDE9 inhibitory activity
- Kp ([1]; CSF and plasma, oral, 50 to 400 mg, read-out: GM ratios of CSF AUC(0-t) to plasma AUC(0-t) across doses): 0.0241 to 0.028
- Kp ([1]; CSF and plasma, oral, 50 to 400 mg, read-out: GM ratios of CSF Cmax to plasma Cmax across doses): 0.02 to 0.0277
- Kp ([1]; CSF and plasma, po, 50 mg, healthy adults Part B, single oral 50 mg, fasted, read-out: CSF: plasma Cmax ratio (expressed as %) GM (% CV)): 0.02
- Kp ([1]; CSF and plasma, po, 75 mg, healthy adults Part B, single oral 75 mg, fasted, from AUC (0-t) or AUC (0-30 h), read-out: CSF: plasma AUC ratio (expressed as %) GM (% CV)): 0.0264
- Kp ([1]; CSF and plasma, po, 75 mg, healthy adults Part B, single oral 75 mg, fasted, read-out: CSF: plasma Cmax ratio (expressed as %) GM (% CV)): 0.0264
- Kp ([1]; CSF and plasma, po, 100 mg, healthy adults Part B, single oral 100 mg, fasted, from AUC (0-t) or AUC (0-30 h), read-out: CSF: plasma AUC ratio (expressed as %) GM (% CV)): 0.0266
- Kp ([1]; CSF and plasma, po, 100 mg, healthy adults Part B, single oral 100 mg, fasted, read-out: CSF: plasma Cmax ratio (expressed as %) GM (% CV)): 0.0194
- Kp ([1]; CSF and plasma, po, 200 mg, healthy adults Part B, single oral 200 mg, fasted, from AUC (0-t) or AUC (0-30 h), read-out: CSF: plasma AUC ratio (expressed as %) GM (% CV)): 0.0238
- Kp ([1]; CSF and plasma, po, 200 mg, healthy adults Part B, single oral 200 mg, fasted, read-out: CSF: plasma Cmax ratio (expressed as %) GM (% CV)): 0.0214
- Kp ([1]; CSF and plasma, po, 400 mg, healthy adults Part B, single oral 400 mg, fasted, from AUC (0-t) or AUC (0-30 h), read-out: CSF: plasma AUC ratio (expressed as %) GM (% CV)): 0.0279
- Kp ([1]; CSF and plasma, po, 400 mg, healthy adults Part B, single oral 400 mg, fasted, read-out: CSF: plasma Cmax ratio (expressed as %) GM (% CV)): 0.0203
- Kp ([1]; CSF, oral, 50 to 400 mg, read-out: mean CSF:plasma ratios (expressed as percentages) of Cmax or AUC(0-t)): 0.02 to 0.03
- Tmax ([1]; CSF, oral, single doses (50 to 400 mg except 50 mg; b332: 100 to 400 mg), read-out: median CSF tmax across doses): 4.37 to 6.87 h
- Tmax ([1]; CSF, healthy adults Part B, single oral 50 mg, fasted, read-out: CSF tmax Median): 11.9 h
- Tmax ([1]; CSF, healthy adults Part B, single oral 75 mg, fasted, read-out: CSF tmax Median): 5.37 h
- Tmax ([1]; CSF, healthy adults Part B, single oral 100 mg, fasted, read-out: CSF tmax Median): 6.87 h
- Tmax ([1]; CSF, healthy adults Part B, single oral 200 mg, fasted, read-out: CSF tmax Median): 4.37 h
- Tmax ([1]; CSF, healthy adults Part B, single oral 400 mg, fasted, read-out: CSF tmax Median): 5.37 h
- % CSF cGMP increase from vehicle control ([2]; 3.3 mg/kg oral): (90) %
- CSF cGMP conc. ([2]; 3.3 mg/kg oral): 3.694 ± 0.65 nM
- % CSF cGMP increase from vehicle control ([2]; 10 mg/kg oral): (152) %
- CSF cGMP conc. ([2]; 10 mg/kg oral): 4.889 ± 0.538 nM
- Novel object exploration ratio in T2 ([3]; 3.3 mg/kg oral): 68.5 ± 2.0 %
- Novel object exploration ratio in T2 ([3]; 10 mg/kg oral): 68.5 ± 1.6 %
- upper 90% CI of the ΔΔQTcF [4]: less than 10 ms
